From patent US20090176817A1, “Method of Treatment of Diarrhea-Predominant Irritable Bowel Syndrome in a Subject” (priority 2005, published 2009)
Read-outs that look alike come from different tables or passages of the source.

Tests used:
clinical [1] = settings: human, in vivo; for half-life: T½
Procedure: Two randomized, double-blind, placebo controlled, balanced incomplete block design, crossover studies evaluated the single- and multiple-dose pharmacokinetics of oral cilansetron over a 8 mg to 32 mg dose range. In both studies, subjects were randomized to receive two of three treatments during 2 treatment periods. In one study (12 male and 13 female subjects, aged 23 to 36 years), subjects received 8 mg cilansetron, 16 mg cilansetron, or placebo, while in another study (12 males and 13 females, aged 23 to 41 years), subjects received 16 mg cilansetron, 32 mg cilansetron, or placebo. During each treatment period, subjects received a single dose of their assigned treatment on the first day, followed by a 3-day washout, after which they received the same treatment TID for 5 days.
There was a 5-6 day washout period between treatment periods. Doses on the mornings of pharmacokinetic days were administered under fasted conditions. Serial blood sampling and urine collection was performed up to 12 hours following morning dosing on the first day (single dose) and on the last multiple dosing day of each treatment period, and cilansetron pharmacokinetic parameters were evaluated.
In two randomized, double-blind, placebo controlled, balanced incomplete block design, crossover studies evaluating the single- and multiple-dose pharmacokinetics of oral cilansetron over a 8 mg to 32 mg dose range, subjects were randomized to receive two of three treatments during 2 treatment periods. In Study S.241.1.101; (12 male and 13 female subjects, aged 23 to 36 years), subjects received 8 mg cilansetron, 16 mg cilansetron, or placebo, while in Study S.24 1.1.102; (12 males and 13 females, aged 23 to 41 years), subjects received 16 mg cilansetron, 32 mg cilansetron, or placebo. During each treatment period, subjects received a single dose of their assigned treatment on the first day, followed by a 3-day washout, after which they received the same treatment TID for 5 days. There was a 5-6 day washout period between treatment periods. Doses on the mornings of pharmacokinetic days were administered under fasted conditions. Serial blood sampling and urine collection was performed up to 12 hours following morning dosing on the first day (single dose) and on the last multiple dosing day of each treatment period, and cilansetron pharmacokinetic parameters were evaluated.

clinical [2] = settings: human, in vivo
Procedure: The single- and multiple-dose pharmacokinetics of cilansetron at oral doses of 4 mg and 8 mg were evaluated in a randomized, double-blind, placebo controlled, parallel group study in 32 male subjects (14 subjects received 4 mg cilansetron, 14 received 8 mg cilansetron, and 4 received placebo). Subjects received a single dose of cilansetron at their assigned dose on the first day of the study (Day 1), followed by a 7-day washout, after which they received cilansetron TID at their assigned dose for 6 days and a single dose on the morning of the seventh day (Day 14). Morning doses on all days were administered under fasted conditions. […] Renal excretion of cilansetron was negligible following single and multiple dosing at both doses, with less than 1% of the dose excreted unchanged in urine.

[3] = system: diarrhea-predominant IBS subjects; type: in vivo, human; settings: for Percentage of Subjects Who Worsened from Baseline: Daily Abdominal Pain / Percentage of Subjects Who Worsened from Baseline: Daily Urgency: S241.3.006, observed value
From the text: Studies S24 1.3.OO6, S24 1.3.0 1 1, and S24 1.3.009 used the following efficacy measurements: • The subjects answered the following three questions with “yes” or “no” using a phone diary at the end of each week: • a) During the last week, did you experience adequate relief of your IBS symptoms, such as abdominal pain, abdominal discomfort, abnormal bowel habits? • b) During the last week, did you experience adequate relief of your abdominal pain and/or discomfort? • c) During the last week, did you experience adequate relief of your abnormal bowel habits? • The subjects rated the following symptoms using the phone diary at the end of each day: • abdominal pain/discomfort (five-point scale); • stool consistency (seven-point Bristol Stool Scale); • stool frequency (number of bowel movements each day); • urgency (five-point scale); • straining (yes or no); • feeling of incomplete defecation (yes or no); • bloating or feeling of abdominal distension (five-point scale). • In Studies S241 A006 and S241.3.009, subjects completed the IBS-QOL Survey at Baseline (Day 1) and at the end of treatment. In Study S24 1.3.0 1 1, subjects completed the IBS-QOL Survey at Baseline (Day 1), at the end of the three-month treatment period, and at the end of rerandomized treatment.
Other secondary efficacy parameters for all three studies included: • Responder rate for the weekly diary questions on adequate relief at each month, where a responder for a month (monthly responder) was defined as a subject who answered the weekly question with “yes” at least twice for that month. The responder rate was the percentage of responders within a treatment group. The all-month responder rate for the weekly diary questions on adequate relief was also evaluated, where an all-month responder was defined as a subject who answered the weekly question with “yes” at least twice for each month. The all-month responder rate was the percentage of all-month responders within a treatment group; • Adequate relief rate for the weekly diary questions was calculated for each subject as the number of weekly assessments with adequate relief (“yes”) divided by the total number of weekly assessments; • Percentage of subjects with adequate relief for the weekly diary questions at each week; • Daily diary questions regarding abdominal pain/discomfort (five-point scale), stool consistency (seven-point scale), stool frequency (number of bowel movements each day), straining (yes or no), urgency (five-point scale), feeling of incomplete evacuation (yes or no), and bloating or feeling of abdominal distention (five-point scale); • QOL data assessed by the IBS-QOL questionnaire; and • Question to determine the interruption of activities.
The deterioration of effect analyses focus is to evaluate the percentage of subjects who worsened from Baseline. Clinical limits were set in order to capture a clinically meaningful number of subjects who worsened from Baseline. This clinical limit was also used in identifying those who improved from Baseline which led to a much larger percentage of subjects meeting this criterion. Percentages of subjects who improved from Baseline for these analyses are discussed in order to understand the context of the percentage of subjects who worsened.

[4] = both, human, in vivo
Procedure: In a single-dose, crossover study conducted to evaluate the potential for a drug-drug interaction between liquid Maalox and cilansetron, 12 male and 12-female subjects (aged 19-39 years) received single doses of cilansetron 16 mg alone and cilansetron 16 mg+Maalox in a crossover fashion under fasted conditions. Blood samples for measurement of plasma cilansetron pharmacokinetics were collected up to 24 hours postdose following each treatment.
The effect of concomitantly administered antacid (liquid Maalox) on the pharmacokinetics of cilansetron has been evaluated in a single-dose, crossover study in 24 healthy, male and female subjects, aged 19 to 39 years. Subjects received the following two treatments during each of the study periods in a crossover fashion: a single oral dose of cilansetron 16 mg tablet (reference treatment); a single oral dose of cilansetron 16 mg tablet+20 mL oral Maalox liquid administered every 4 hours (test treatment; 4 doses of Maalox in total; cilansetron was administered 5 minutes after the first dose of Maalox). Both cilansetron treatments were administered under fasted conditions.

clinical [5] = settings: both, human, in vivo, po, 8 mg
clinical [6] = settings: both, human, in vivo, po, 16 mg
Procedure: In a randomized, double-blind, placebo-controlled, 2-way crossover study in 9 male and 9 female healthy subjects (ITT population, aged 21-39 years), subjects were randomized to receive 2 treatments (cilansetron 16 mg tablet and placebo) during the 2 treatment periods. During each treatment period, subjects received a single dose of their assigned treatment on the first day (Day 1), after which they received the same treatment TID for 4 days (Days 2-5). There was a 10-day washout period between treatment periods. Subjects were fasted for at least 2 hours before and following each dose, and heavy physical activity was restricted. Serial 12-lead ECGs was recorded up to 24 hours following dosing on Day 1 (single dose) and on the last day (Day 5) of each treatment period. Heart rate and ECG intervals (RR, PR, QRS, and QT) were measured electronically, but were manually verified and corrected if needed by the investigator. QT intervals were corrected (QTc) electronically for heart rate using the Bazett's correction. Mean and maximum QTc intervals were calculated over different time intervals postdose and were compared between treatments using an ANOVA accounting for sequence, gender, subject within sequence and gender, period, and treatment effects.

Work on `Cc1nccn1C[C@H]1CCc2c(c3cccc4c3n2CCC4)C1=O` [Cilansetron, (R)-(−)-4,5,6,8,9,10-hexahydro-10-[(2-methyl-1H-imidazol-1-yl)methyl]-11H-pyrido-[3,2,1-jk]-carbazol-11-one] yielded a half-life (clinical [1]; both, 16 mg) of 1.35 h, a Tmax (clinical [1]; both, 32 mg) of 1 h and an AUC (clinical [1]; both, 32 mg) of 451 ng·h/mL. It also gave a Cmax (clinical [1]; both, 32 mg) of 216 ng/mL, a half-life (clinical [1]; both, 32 mg) of 1.22 h and a Tmax (clinical [1]; female, 32 mg) of 1 h. It also gave an AUC (clinical [1]; female, 32 mg) of 405 ng·h/mL, a Cmax (clinical [1]; female, 32 mg) of 210 ng/mL and a half-life (clinical [1]; female, 32 mg) of 1.08 h. For the same compound, the Tmax (clinical [1]; female, po, 16 mg) was 1 h, the Tmax (clinical [1]; female, po, 32 mg) was 1 h and the AUC (clinical [1]; female, po, 32 mg) was 433 ng·h/mL. The Cmax (clinical [1]; female, po, 32 mg) was 270 ng/mL, the half-life (clinical [1]; female, po, 32 mg) was 1.01 h and the Tmax (clinical [1]; male, 32 mg) was 1 h. It also gave an AUC (clinical [1]; male, 32 mg) of 354 ng·h/mL, a Cmax (clinical [1]; male, 32 mg) of 140 ng/mL and a half-life (clinical [1]; male, 32 mg) of 1.4 h. It also gave a Tmax (clinical [1]; male, po, 16 mg) of 1 h, a Tmax (clinical [1]; male, po, 32 mg) of 1.5 h and an AUC (clinical [1]; male, po, 32 mg) of 469 ng·h/mL. The Cmax (clinical [1]; male, po, 32 mg) was 161 ng/mL, the half-life (clinical [1]; male, po, 32 mg) was 1.44 h and the CL/F (clinical [2]; 4 mg) was 3226 (51) mL/min. The CL/F (clinical [2]; 8 mg) was 3559 (62) mL/min, the “Dose excreted unchanged in urine” value (clinical [2]; male) was “less than 1%” and the “Intersubject % CV for AUC and Cmax” value (clinical [2]; male) was 36-82%. The “Intrasubject % CV on AUC” value (clinical [2]; male) was 33-55%, the CLr (clinical [2]; male, 4 mg) was 7.47 (143) mL/min and the DN-AUC (clinical [2]; male, 4 mg) was 6.08 (36) ng · h/mL. For the same compound, the DN-Cmax (clinical [2]; male, 4 mg) was 2.21 (37) ng/mL, the Vd/F (clinical [2]; male, 4 mg) was 406 L and the AUC (clinical [2]; male, 4 mg) was 24.3 ng·h/mL. It also gave a Cmax (clinical [2]; male, 4 mg) of 8.83 ng/mL, a Tmax (clinical [2]; male, 4 mg) of 1.38 h and a half-life (clinical [2]; male, 4 mg, T½) of 1.55 h. For the same compound, the DN-AUC (clinical [2]; male, 8 mg) was 6.55 (69) ng · h/mL, the DN-Cmax (clinical [2]; male, 8 mg) was 2.89 (61) ng/mL and the Vd/F (clinical [2]; male, 8 mg) was 483 L. The AUC (clinical [2]; male, 8 mg) was 52.4 ng·h/mL, the CL renal (clinical [2]; male, 8 mg, CLr) was 4.68 mL/min and the Cmax (clinical [2]; male, 8 mg) was 23.1 ng/mL. It also gave a Tmax (clinical [2]; male, 8 mg) of 1 h, a half-life (clinical [2]; male, 8 mg, T½) of 1.92 h and a half-life (clinical [2]; male, Mean half-life) of 1.6 to 1.9 h. The “Mean number of stools per day at end of treatment” value ([3]; 2 mg TID) was 2.45 stools per day, the “Percentage of Subjects Who Worsened from Baseline: Daily Abdominal Pain” value (from here on “Percentage … Daily Abdominal Pain”) ([3]; Weeks 1-2, 2 mg TID) was 13% and the “Percentage of Subjects Who Worsened from Baseline: Daily Urgency” value (“Percentage … Daily Urgency” for short) ([3]; Weeks 1-2, 2 mg TID) was 5%. The “Percentage … Daily Abdominal Pain” value ([3]; Weeks 3-4, 2 mg TID) was 8%, the “Percentage … Daily Urgency” value ([3]; Weeks 3-4, 2 mg TID) was 5% and the “Percentage … Daily Abdominal Pain” value ([3]; Weeks 5-6, 2 mg TID) was 9%. For the same compound, the “Percentage … Daily Urgency” value ([3]; Weeks 5-6, 2 mg TID) was 8%, the “Percentage … Daily Abdominal Pain” value ([3]; Weeks 7-8, 2 mg TID) was 7% and the “Percentage … Daily Urgency” value ([3]; Weeks 7-8, 2 mg TID) was 5%. For the same compound, the “Percentage … Daily Abdominal Pain” value ([3]; Weeks 9-10, 2 mg TID) was 8%, the “Percentage … Daily Urgency” value ([3]; Weeks 9-10, 2 mg TID) was 8% and the “Percentage … Daily Abdominal Pain” value ([3]; Weeks 11-12, 2 mg TID) was 8%. The “Percentage … Daily Urgency” value ([3]; Weeks 11-12, 2 mg TID) was 8%, the “Subjects worsened from Baseline, daily abdominal pain” value ([3]; Weeks 1-2) was 13% and the “Subjects worsened from Baseline, daily urgency” value ([3]; Weeks 1-2) was 5%. For the same compound, the “Median rate of urgency-free days” value ([3]; end of treatment) was 0.27, the “Bloating or abdominal distention score, change from Baseline at end of treatment” value ([3]; in vivo) was −0.48 and the “Daily abdominal pain/discomfort score, change from Baseline at end of treatment” value ([3]; in vivo) was −0.69. The “Daily stool consistency score, change from Baseline at end of treatment” value ([3]; in vivo) was −1.22, the “Daily urgency score, change from Baseline at end of treatment” value ([3]; in vivo) was −0.87 and the “Feeling of incomplete evacuation, change from Baseline at end of treatment” value ([3]; in vivo) was −0.18. For the same compound, the “Mean stool consistency score at end of treatment” value ([3]; in vivo) was 4.10, the “Mean straining, change from Baseline at end of treatment” value ([3]; in vivo) was 0.09 and the “Stools per day, change from Baseline at end of treatment” value ([3]; in vivo) was −0.98. For the same compound, the “Median rate of pain-free days” value ([3]; three-month period) was 0.19, the “Median rate of urgency-free days” value ([3]; three-month period) was 0.32 and the “AUC (0-inf) Ratio (Treatment B/A)” value [4] was 100%. The “AUC (0-last) Ratio (Treatment B/A)” value [4] was 100%, the “Cmax Ratio (Treatment B/A)” value [4] was 87% and the “AUC and Cmax lower in males than in females” value ([4]; 16 mg) was 56%. The “Mean Cmax decrease with Maalox” value ([4]; 16 mg) was 13%, the “Mean half-life lower in males than in females” value ([4]; 16 mg) was 41% and the AUC (clinical [5]; AUC(0-τ), Geom. LS Mean) was 334 ng·h/mL. For the same compound, the Cmax (clinical [5]) was 94.4 ng/mL, the Cmax (clinical [5]; Geom. LS Mean) was 83.9 ng/mL and the Tmax (clinical [5]; Tmax) was 0.75 h. For the same compound, the half-life (clinical [5]; T½) was 8.16 h, the Vd/F (clinical [5]; Vz/F) was 388 L and the Tmax (clinical [6]) was 3 h.
